# Test results from patent US20080119530A1, “Method for treatment and prevention of ultraviolet light induced skin pathologies” (priority 2006, published 2008).
# Columns and labels:
# skin = format: in vivo, mouse
# Excerpt: Real-Time PCR. Selected changes in gene expression were validated using real-time PCR. Sequences supplied by Affymetrix from the probe set of Il1 b (probe: 1449399_a_at), Mmp9 (probe: 1416298_at) and Thbs1 (probe: 1421811_at) were scanned for unique sequences using a stringent blast search (www.ncbi.nlm.nih.gov/BLAST). Sequences spanning exons were selected preferentially for probes and primers for prepared using Assays-by-Design (Applied Biosystems, Foster City, Calif.). Real-time PCR was performed using TaqMan One-Step RT-PCR Master Mix Reagents (Applied Biosystems, Foster City, Calif.) according to the manufacturer's instructions on an ABI Prism 7000 (Applied Biosystems, Foster City, Calif.). The relative efficiency of amplification of the selected gene versus control (GAPDH or actin) was plotted to ensure the slope of total RNA versus ΔCT was less than 0.05. The 2^−ΔΔC^T was used to determine fold-change differences between samples^25.
# Erbb2 = target: T1, Erbb2 (Mus musculus, UniProt P70424); assay: UV-induced activation (phosphorylation) of Erbb2; format: cell-based
# T1 construct: endogenous in cells; host or cells: primary newborn mouse keratinocytes; also mouse epidermis/skin extracts
# T1 sequence (P70424 23-1256): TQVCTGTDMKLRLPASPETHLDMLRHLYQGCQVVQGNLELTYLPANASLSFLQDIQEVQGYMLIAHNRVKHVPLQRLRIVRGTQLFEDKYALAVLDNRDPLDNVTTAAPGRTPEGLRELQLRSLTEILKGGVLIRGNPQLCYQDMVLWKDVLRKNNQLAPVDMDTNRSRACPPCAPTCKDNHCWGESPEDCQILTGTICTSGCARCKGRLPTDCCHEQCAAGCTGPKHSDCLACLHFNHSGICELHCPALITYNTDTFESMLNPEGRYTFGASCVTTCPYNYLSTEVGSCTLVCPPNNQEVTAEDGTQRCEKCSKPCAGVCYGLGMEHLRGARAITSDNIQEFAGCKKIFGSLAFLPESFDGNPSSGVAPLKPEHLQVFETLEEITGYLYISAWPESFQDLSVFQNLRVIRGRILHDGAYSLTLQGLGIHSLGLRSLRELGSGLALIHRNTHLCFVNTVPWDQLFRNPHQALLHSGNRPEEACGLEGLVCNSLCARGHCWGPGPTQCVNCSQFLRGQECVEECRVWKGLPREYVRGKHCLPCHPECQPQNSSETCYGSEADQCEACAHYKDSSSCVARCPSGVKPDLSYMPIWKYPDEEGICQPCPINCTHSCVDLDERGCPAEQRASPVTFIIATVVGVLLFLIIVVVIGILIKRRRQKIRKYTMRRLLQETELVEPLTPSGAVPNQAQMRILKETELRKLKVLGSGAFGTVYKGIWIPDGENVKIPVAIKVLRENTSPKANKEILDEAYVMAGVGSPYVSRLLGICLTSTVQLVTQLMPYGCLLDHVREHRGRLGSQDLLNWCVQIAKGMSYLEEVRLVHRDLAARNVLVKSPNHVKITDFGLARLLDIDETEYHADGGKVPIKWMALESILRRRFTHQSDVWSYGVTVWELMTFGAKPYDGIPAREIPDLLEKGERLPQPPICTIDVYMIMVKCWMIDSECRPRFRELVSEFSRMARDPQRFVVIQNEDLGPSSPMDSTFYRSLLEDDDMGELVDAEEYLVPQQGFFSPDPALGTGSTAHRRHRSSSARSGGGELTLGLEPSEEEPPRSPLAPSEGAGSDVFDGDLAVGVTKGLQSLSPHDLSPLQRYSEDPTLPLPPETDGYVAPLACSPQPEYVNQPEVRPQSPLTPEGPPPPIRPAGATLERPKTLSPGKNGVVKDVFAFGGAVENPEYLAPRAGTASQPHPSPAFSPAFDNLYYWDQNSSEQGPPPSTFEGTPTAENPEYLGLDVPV
# Excerpt: For some experiments, the epidermis was separated from the skin by the heat shock method before homogenization. Keratinocytes were lysed in the same buffer. Membranes were immunoblotted with antibodies recognizing Erbb2, phospho-Erbb2 (Tyr^1248), EGFR, phospho-EGFR (Tyr^992), phospho-EGFR (Tyr^1173), phosphotyrosine, and Tall (Calbiochem, San Diego, Calif.). Binding of horseradish peroxidase-conjugated secondary antibodies (Cell Signaling, Beverly, Mass.) was visualized using chemiluminescent reagents (Pierce, Rockford, Ill.) and autoradiography. Densitometry was performed using IDScan software (Scanalytics, Fairfax, Va.).
# (§1) Several methods were developed to regulate Erbb2 expression and activity both in vitro and in vivo.
# Erbb3 = assay: UV-induced phosphorylation of Erbb3; format: cell-based, mouse
# Excerpt: as §1
# Tg.AC mice = assay: UV-induced skin tumorigenesis in v-rasHa transgenic Tg.AC mice; format: in vivo, mouse
# Excerpt: Animals. Homozygous v-rasHa transgenic mice on an FVB/N background were used in in vivo experiments. To obtain keratinocytes with genetic ablation of Erbb2, loxP sites were inserted flanking exon 2 of Erbb2 such that splicing from exon1 to downstream introns upon Cre recombinase expression creates a frameshift mutation. Mice were maintained in our animal facility and provided with Purina lab chow (Nestle Purina PetCare, St. Louis, Mo.) and water ad libitum. The dorsal skin was clipped one day before treatment using electric clippers (Wahl, Sterling, II) and shaved on the day of treatment with a Remington Microscreen shaver (Madison, N.C.). […] The Ultraviolet-B TL 40W/12 RS bulbs (Philips, Somerset, N.J.) used emitted approximately 30% UVA, 70% UVB and <1% UVC, with a total output of 470 μW/cm^2, as measured with radiometric photodetector probes (Newport, Irvine, Calif.). For tumor experiments, homozygous Tg.AC mice were treated and exposed twice with an interval of 7 d. Tumor number was counted and tumor volume measured weekly using calipers. Skin-fold thickness was measured using calipers (Mitutoyo, Aurora, Ill.) to lightly pinch the dorsal skin. All animal procedures were performed in accordance with American Association of Laboratory Animal Care guidelines and approved by Creighton University's Institutional Animal Care and Use Committee.
# Statistical methods. The tumor experiment was analyzed using two-way ANOVA. Statistical significance in other experiments was assessed using two-way ANOVA or Student's t-test with Bonferroni post-test. All experiments, excluding the tumor experiment, were replicated several times and consistent results obtained.
# The skin tumorigenesis experiment was performed in v-ras^Ha transgenic Tg.AC mice because of their enhanced sensitivity to UV-induced skin tumorigenesis (13; 52). […] While the vehicle-treated mice continued to accrue tumors throughout the duration of the experiment, the AG825-treated group reached a plateau in tumor number by 7 weeks after the first UV exposure. By the end of the experiment, mean tumor volume was also 70% less in the AG825-treated group when compared to the vehicle control. Representative tumors from each treatment were examined histologically and all were benign squamous papillomas with similar differentiation status.
# Upon activation, Erbb2 heterodimerizes with either EGFR or Erbb3 to transduce signals. Support for the hypothesis that Erbb2 increases skin carcinogenesis comes from our investigations of the functions of its dimerization partner EGFR. A tumor study was conducted to assess the role of EGFR in the clonal expansion of transformed cells to form benign tumors in the skin of v-ras^Ha transgenic Tg.AC mice. Inhibition of EGFR with the tyrphostin inhibitor AG1478 decreased the number of tumors that developed by about 50% in UV-exposed v-rasHa transgenic mice. Mean tumor volume was 80% less upon inhibition of EGFR-mediated signaling when compared to, UV-exposed and vehicle-treated controls.
structure (smiles),measurement,setting,value
COc1cc(/C=C(\C#N)C(N)=O)cc(CSc2nc3ccccc3s2)c1O [AG825],fold increase in Mmp9 expression,"skin; 24 h after UV exposure, qPCR",1.3 fold
same,Thbs1 expression vs vehicle-treated mice,"skin; 24 h post-UV, real-time PCR",similar
same,Il1 b expression: fold greater increase after UV in vehicle-treated compared to AG825-treated samples,skin; real-time PCR,6 fold
same,fold higher Thbs1 expression compared to corresponding control,"skin; sham-irradiated skin, real-time PCR",2 fold
same,duration of the inhibition of Erbb2,Erbb2,less than 24 h
same,activation of Erbb2 by UV,Erbb2; both in vivo and in vitro,blocked
same,UV-induced phosphorylation of Erbb2 at Tyr1248,Erbb2; cultured keratinocytes,inhibited
same,UV-induced phosphorylation of Erbb3-Tyr1289,Erbb3,blocked
same,tumors per mouse by the end of the experiment,Tg.AC mice; 4 mg AG825 topically 2 h prior to each of two 10 kJ/m^2 UV exposures 7 d apart,15
same,tumor multiplicity decreased,Tg.AC mice; 12 weeks later,more than half
same,tumor volume decreased,Tg.AC mice; 12 weeks later,more than half
same,time by which tumor number reached a plateau,Tg.AC mice; after the first UV exposure,≤ 7 weeks
same,mean tumor volume less than vehicle control,Tg.AC mice; by the end of the experiment,70%
same,development of tumors blocked,"Tg.AC mice; inhibition of Erbb2 prior to UV irradiation, vs vehicle",more than half
same,UV-induced carcinogenesis (FIG. 6),Tg.AC mice; topical treatment 2 h prior to UV irradiation,suppress
